Consider 17 compounds from patent US11306064B2, “Benzothia(di)azepine compounds and their use as bile acid modulators” (Albireo AB, priority 2018, dated 2022).

Where only a bound is given, the exact number is not on record here.

What all share (format): cell-based
The test system of one experiment is HepaRG cells. Kind of experiment: HepaRG-based assay: 3H-taurocholic acid uptake in differentiated HepaRG cells. To be noted: Homo sapiens, HepaRG, 0.3 μM 3H-taurocholic acid and 7.5 μM cold taurocholic acid, 30 minutes. The procedure, abridged:
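Differentiated HepaRG cells cultured 7 days post-seeding were exposed for 30 min at 37 °C to 0.3 μM 3H-taurocholic acid plus 7.5 μM cold taurocholic acid with inhibitor (3-fold dilutions, 0.2% DMSO). Uptake was stopped on ice, washed with 1 mM unlabelled taurocholic acid, and counted by scintillation.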

A further experiment has as its target T1, Human LBAT (Homo sapiens, UniProt Q14973).
T1 construct: expressed in transfected cells; kept under Geneticin selection
T1 sequence (Q14973 1-349): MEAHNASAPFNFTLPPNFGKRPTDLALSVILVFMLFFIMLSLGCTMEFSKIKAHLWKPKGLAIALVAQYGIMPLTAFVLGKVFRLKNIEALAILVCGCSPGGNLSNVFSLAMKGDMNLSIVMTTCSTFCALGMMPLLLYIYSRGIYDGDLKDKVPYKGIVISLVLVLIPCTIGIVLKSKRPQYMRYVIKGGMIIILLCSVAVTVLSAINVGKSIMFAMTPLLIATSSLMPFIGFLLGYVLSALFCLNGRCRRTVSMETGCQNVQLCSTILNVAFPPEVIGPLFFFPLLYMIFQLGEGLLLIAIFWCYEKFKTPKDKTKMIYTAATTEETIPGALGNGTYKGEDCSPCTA
The experiment can be described thus: LBAT (h/m) assay: 3H-taurocholic acid uptake in human LBAT-overexpressing cells. Conditions: 0.3 μM 3H-taurocholic acid and 7.5 μM cold taurocholic acid, 20 minutes, read-out: hLBAT IC50. The gist of the method:
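LBAT-overexpressing cells, serum-free MEM-alpha, 20 min at 37° C with inhibitor (3-fold, 10-point) plus 0.3 μM 3H-taurocholic acid and cold taurocholic acid (7.5 μM human; 25 μM mouse), 0.2% DMSO. Stopped on ice, washed with 1 mM unlabelled taurocholate; uptake by scintillation counting.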

The target in the next experiment is T2, Human ASBT (Homo sapiens, UniProt Q12908).
T2 construct: expressed in transfected cells; kept under Puromycin selection
T2 sequence (Q12908 1-348): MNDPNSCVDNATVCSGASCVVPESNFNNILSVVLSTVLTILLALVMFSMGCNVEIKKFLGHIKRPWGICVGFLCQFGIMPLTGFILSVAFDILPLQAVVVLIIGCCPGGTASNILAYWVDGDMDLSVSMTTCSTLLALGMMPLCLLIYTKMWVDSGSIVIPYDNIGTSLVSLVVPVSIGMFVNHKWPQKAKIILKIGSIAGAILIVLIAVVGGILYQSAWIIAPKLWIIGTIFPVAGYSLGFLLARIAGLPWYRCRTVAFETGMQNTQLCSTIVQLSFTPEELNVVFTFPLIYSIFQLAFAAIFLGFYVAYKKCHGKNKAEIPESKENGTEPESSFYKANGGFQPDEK
Kind of experiment: ASBT (h/m) assay: 3H-taurocholic acid uptake in human ASBT-overexpressing cells. Conditions: 0.25 μM 3H-taurocholic acid and 5 μM cold taurocholic acid, 20 minutes, read-out: hASBT IC50. The procedure, abridged:
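ASBT-overexpressing cells, seeded 48 h earlier, took up 0.25 µM 3H-taurocholic acid plus 5 µM cold taurocholate for 20 min at 37 °C with inhibitor (10-point 3-fold series, top 10 µM, 0.2% DMSO). Ice stop, washes with cold 1 mM taurocholate in HEPES-HBSS pH 7.4, scintillation counting.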

The IC50 is the concentration that gives 50% inhibition. Turning to `CCC1(CC)CN(c2ccccc2)c2cc(I)c(O/C=C/C(=O)O)cc2S(=O)(=O)C1` [Example 54, (E)-3-((3,3-diethyl-7-iodo-1,1-dioxido-5-phenyl-2,3,4,5-tetrahydro-1,5-benzothiazepin-8-yl)oxy)acrylic Acid], the IC50 with HepaRG cells turned out to be 260 nM; at Human LBAT it was 100 nM; at Human ASBT, 186 nM.
With `CCC1(CC)CN(c2ccccc2)c2cc(Br)c(O/C=C/C(=O)O)cc2S(=O)(=O)C1` [Example 55, (E)-3-((7-bromo-3,3-diethyl-1,1-dioxido-5-phenyl-2,3,4,5-tetrahydro-1,5-benzothiazepin-8-yl)oxy)acrylic Acid], the IC50 came out at 328 nM in the experiment with HepaRG cells, 100 nM on Human LBAT and 487 nM on Human ASBT.
As to `CCC1(CC)CN(c2ccccc2)c2cc(Br)c(O/C=C(\F)C(=O)O)cc2S(=O)(=O)C1` [Example 56, (Z)-3-((7-bromo-3,3-diethyl-1,1-dioxido-5-phenyl-2,3,4,5-tetrahydro-1,5-benzothiazepin-8-yl)oxy)-2-fluoroacrylic Acid], the IC50 in the experiment on HepaRG cells turned out to be 175 nM; on Human LBAT, 37 nM; at Human ASBT it was 380 nM.
Take `CCCCC1(CC)CN(c2ccc(C(=O)NC(C)(C)C)cc2)c2cc(SC)c(O/C=C/C(=O)O)cc2S(=O)(=O)C1` (stereo not drawn) [Example 62, (E)-3-((3-butyl-5-(4-(tert-butylcarbamoyl)phenyl)-3-ethyl-7-(methylthio)-1,1-dioxido-2,3,4,5-tetrahydro-1,5-benzothiazepin-8-yl)oxy)acrylic Acid]: the IC50 in the experiment with HepaRG cells was 772 nM; at Human LBAT, 235 nM; on Human ASBT, over 20000 nM.
Consider `CCC1(CC)CN(c2ccc(NCc3ccccc3)cc2)c2cc(SC)c(O/C=C(\F)C(=O)O)cc2S(=O)(=O)C1` [Example 66, (Z)-3-((5-(4-(benzylamino)phenyl)-3,3-diethyl-7-(methylthio)-1,1-dioxido-2,3,4,5-tetrahydro-1,5-benzothiazepin-8-yl)oxy)-2-fluoroacrylic Acid], for which the IC50 with HepaRG cells was determined as 518 nM; at Human LBAT, 30 nM; on Human ASBT, 2760 nM.
On to `CCCCC1(CCCC)CN(c2ccc(C(=O)NC(C)(C)C)cc2)c2cc(SC)c(O/C=C/C(=O)O)cc2S(=O)(=O)C1` [Example 68, (E)-3-((3,3-dibutyl-5-(4-(tert-butylcarbamoyl)phenyl)-7-(methylthio)-1,1-dioxido-2,3,4,5-tetrahydro-1,5-benzothiazepin-8-yl)oxy)acrylic Acid], for which the IC50 in the experiment on HepaRG cells turned out to be 344 nM; at Human LBAT it was 130 nM; at Human ASBT, 6670 nM.
Turning to `CCCCC1(CCCC)CN(c2ccc(C(=O)NC(C)C)cc2)c2cc(SC)c(O/C=C/C(=O)O)cc2S(=O)(=O)C1` [Example 69, (E)-3-((3,3-dibutyl-5-(4-(isopropylcarbamoyl)phenyl)-7-(methylthio)-1,1-dioxido-2,3,4,5-tetrahydro-1,5-benzothiazepin-8-yl)oxy)acrylic Acid], the IC50 in the experiment with HepaRG cells is 630 nM; at Human LBAT, 364 nM; on Human ASBT, over 3000 nM.
The like results for `CCCCC1(CCCC)CN(c2ccccc2)c2cc(SCC)c(O/C=C(\F)C(=O)O)cc2S(=O)(=O)C1` [Example 70, (Z)-3-((3,3-dibutyl-7-(ethylthio)-1,1-dioxido-5-phenyl-2,3,4,5-tetrahydro-1,5-benzothiazepin-8-yl)oxy)-2-fluoroacrylic Acid] were, in that order, 716 nM, 81 nM and 125 nM.
For `CCCCC1(CCCC)CN(c2ccc(NC(=O)CC)cc2)c2cc(SC)c(O/C=C(\F)C(=O)O)cc2S(=O)(=O)C1` [Example 71, (Z)-3-((3,3-dibutyl-7-(methylthio)-1,1-dioxido-5-(4-propionamidophenyl)-2,3,4,5-tetrahydro-1,5-benzothiazepin-8-yl)oxy)-2-fluoroacrylic Acid], the IC50 is 296 nM with HepaRG cells, 47 nM at Human LBAT and over 3000 nM at Human ASBT.
With `CCCCC1(CC)CN(c2ccccc2)c2cc(SCC)c(O/C=C(\F)C(=O)O)cc2S(=O)(=O)C1` (stereo not drawn) [Example 72, (Z)-3-((3-butyl-3-ethyl-7-(ethylthio)-1,1-dioxido-5-phenyl-2,3,4,5-tetrahydro-1,5-benzothiazepin-8-yl)oxy)-2-fluoroacrylic Acid], the results for the IC50 in the experiment with HepaRG cells, on Human LBAT and on Human ASBT were 319 nM, 13 nM and 76 nM, respectively.
The like results for `CCCCC1(CC)CN(c2ccccc2)c2cc(SCC)c(O/C=C/C(=O)O)cc2S(=O)(=O)C1` (stereo not drawn) [Example 73, (E)-3-((3-butyl-3-ethyl-7-(ethylthio)-1,1-dioxido-5-phenyl-2,3,4,5-tetrahydro-1,5-benzothiazepin-8-yl)oxy)acrylic Acid] were, in that order, 766 nM, 120 nM and 155 nM.
`CCCCC1(CCCC)CN(c2ccccc2)c2cc(SC)c(O/C=C(\C)C(=O)O)cc2S(=O)(=O)N1` [Example 74, (E)-3-((3,3-dibutyl-7-(methylthio)-1,1-dioxido-5-phenyl-2,3,4,5-tetrahydro-1,2,5-benzothiadiazepin-8-yl)oxy)-2-methylacrylic Acid]: the IC50 in the experiment on HepaRG cells amounted to 3380 nM; on Human LBAT, 649 nM; on Human ASBT, 57 nM.
Turning to `CCCCC1(CCCC)CN(c2ccc(C(=O)NC(C)(C)C)cc2)c2cc(SC)c(O/C=C(\F)C(=O)O)cc2S(=O)(=O)C1` [Example 79, (Z)-3-((3,3-dibutyl-5-(4-(tert-butylcarbamoyl)phenyl)-7-(methylthio)-1,1-dioxido-2,3,4,5-tetrahydro-1,5-benzothiazepin-8-yl)oxy)-2-fluoroacrylic Acid], the IC50 in the experiment with HepaRG cells is 246 nM; at Human LBAT, 8 nM; on Human ASBT it was over 1000 nM.
Regarding `CCCCC1(CC)CN(c2ccccc2)c2cc(Br)c(O/C=C/C(=O)O)cc2S(=O)(=O)N1` (stereo not drawn) [Example 87, (E)-3-((7-bromo-3-butyl-3-ethyl-1,1-dioxido-5-phenyl-2,3,4,5-tetrahydro-1,2,5-benzothiadiazepin-8-yl)oxy)acrylic Acid], the IC50 in the experiment with HepaRG cells is 1080 nM; on Human LBAT, 220 nM; at Human ASBT it was 157 nM.
As to `CCCCC1(CCCC)CN(c2ccc(O)cc2)c2cc(SC)c(O/C=C(\F)C(=O)O)cc2S(=O)(=O)C1` [Example 95, (Z)-3-((3,3-dibutyl-5-(4-hydroxyphenyl)-7-(methylthio)-1,1-dioxido-2,3,4,5-tetrahydro-1,5-benzothiazepin-8-yl)oxy)-2-fluoroacrylic Acid], the IC50 with HepaRG cells was 1220 nM; on Human LBAT, 77 nM; at Human ASBT, 17 nM.
Regarding `CCCCC1(CC)CN(c2ccccc2)c2cc(F)c(O/C=C(\F)C(=O)O)cc2S(=O)(=O)C1` (stereo not drawn) [Example 96, (Z)-3-((3-butyl-3-ethyl-7-fluoro-1,1-dioxido-5-phenyl-2,3,4,5-tetrahydro-1,5-benzothiazepin-8-yl)oxy)-2-fluoroacrylic Acid], the IC50 worked out at 785 nM in the experiment with HepaRG cells, 231 nM at Human LBAT and 15 nM at Human ASBT.
Consider `CCCCC1(CC)CN(c2ccccc2)c2cc(Br)c(O/C=C(\F)C(=O)O)cc2S(=O)(=O)N1C` (stereo not drawn) [Example 106, (Z)-3-((7-bromo-3-butyl-3-ethyl-2-methyl-1,1-dioxido-5-phenyl-2,3,4,5-tetrahydro-1,2,5-benzothiadiazepin-8-yl)oxy)-2-fluoroacrylic Acid], for which the IC50 in the experiment with HepaRG cells was 246 nM; at Human LBAT, 31 nM; on Human ASBT, 673 nM.
